Measurements from ChEMBL document CHEMBL3272271, “Folate antagonists. 13. 2,4-Diamino-6-](alpha,alpha,alpha-trifluoro-m-tolyl)thio]quinazoline and related 2,4-diamino-6-[(phenyl- and naphthyl)thio]quinazolines, a unique class of antimetabolites with extraordinary antimalarial and antibacterial effects” (J Med Chem, 1978).
Converted amounts (≈) assume the structure as drawn. The source made the active and inactive calls. The rule behind the calls is not given here.

How the values were obtained:
[1] = test system: Staphylococcus aureus; experiment: Antibacterial activity against Staphylococcus aureus UC-96 by gradient plate test; assay type: functional
[2] = test system: Enterococcus faecalis; experiment: Antibacterial activity against Streptococcus faecalis MGH-2 by gradient plate test; assay type: functional
[3] = test system: Plasmodium gallinaceum; experiment: Antimalarial activity against sporozoite-induced Plasmodium gallinaceum infected in white leghorn chicken assessed as disease cure from parasite infection at 80 mg/kg, sc administered 72 hrs after infection; assay type: functional, organism-based; set-up: dose 80 mg/kg
[4] = test system: Shigella sonnei; experiment: Antibacterial activity against Shigella sonnei C-10 by gradient plate test; assay type: functional
[5] = test system: Plasmodium berghei; experiment: Antimalarial activity against Plasmodium berghei infected in mouse assessed as disease cure from parasite infection at 320 mg/kg, sc administered 72 hrs after infection; assay type: functional, organism-based; set-up: dose 320 mg/kg
[6] = test system: Plasmodium gallinaceum; experiment: Antimalarial activity against sporozoite-induced Plasmodium gallinaceum infected in white leghorn chicken assessed as disease cure from parasite infection at 160 mg/kg, sc administered 72 hrs after infection; assay type: functional, organism-based; set-up: dose 160 mg/kg
[7] = test system: Plasmodium berghei; experiment: Antimalarial activity against Plasmodium berghei infected in mouse assessed as disease cure from parasite infection at 40 mg/kg, sc administered 72 hrs after infection; assay type: functional, organism-based; set-up: dose 40 mg/kg
[8] = test system: Plasmodium berghei; experiment: Antimalarial activity against Plasmodium berghei infected in mouse assessed as disease cure from parasite infection at 80 mg/kg, sc administered 72 hrs after infection; assay type: functional, organism-based; set-up: dose 80 mg/kg
[9] = test system: Plasmodium berghei; experiment: Antimalarial activity against Plasmodium berghei infected in mouse assessed as increase in mean survival days of host at 40 mg/kg, sc administered 72 hrs after infection relative to control; assay type: functional; settings: route subcutaneous
[10] = test system: Pseudomonas aeruginosa; experiment: Antibacterial activity against Pseudomonas aeruginosa 28 by gradient plate test; assay type: functional
[11] = test system: Plasmodium berghei; experiment: Antimalarial activity against Plasmodium berghei infected in mouse assessed as increase in mean survival days of host at 20 mg/kg, sc administered 72 hrs after infection relative to control; assay type: functional; settings: route subcutaneous
[12] = test system: Plasmodium berghei; experiment: Antimalarial activity against Plasmodium berghei infected in mouse assessed as increase in mean survival days of host at 80 mg/kg, sc administered 72 hrs after infection relative to control; assay type: functional; settings: route subcutaneous
[13] = test system: Escherichia coli; experiment: Antibacterial activity against Escherichia coli Vogel by gradient plate test; assay type: functional
[14] = test system: Plasmodium berghei; experiment: Antimalarial activity against Plasmodium berghei infected in mouse assessed as increase in mean survival days of host at 160 mg/kg, sc administered 72 hrs after infection relative to control; assay type: functional; settings: route subcutaneous
[15] = test system: Staphylococcus aureus; experiment: Antibacterial activity against drug-resistant Staphylococcus aureus S18713 by gradient plate test; assay type: functional
[16] = test system: Plasmodium gallinaceum; experiment: Antimalarial activity against sporozoite-induced Plasmodium gallinaceum infected in white leghorn chicken assessed as disease cure from parasite infection at 320 mg/kg, sc administered 72 hrs after infection; assay type: functional, organism-based; set-up: dose 320 mg/kg
[17] = test system: Plasmodium berghei; experiment: Antimalarial activity against Plasmodium berghei infected in mouse assessed as disease cure from parasite infection at 160 mg/kg, sc administered 72 hrs after infection; assay type: functional, organism-based; set-up: dose 160 mg/kg
[18] = test system: Plasmodium berghei; experiment: Antimalarial activity against Plasmodium berghei infected in mouse assessed as disease cure from parasite infection at 640 mg/kg, sc administered 72 hrs after infection; assay type: functional, organism-based; set-up: dose 640 mg/kg
[19] = test system: Mycobacterium tuberculosis; experiment: Antibacterial activity against Mycobacterium tuberculosis H37Ra by gradient plate test; assay type: functional
[20] = test system: Plasmodium berghei; experiment: Antimalarial activity against Plasmodium berghei infected in mouse assessed as disease cure from parasite infection at 20 mg/kg, sc administered 72 hrs after infection; assay type: functional, organism-based; set-up: dose 20 mg/kg
[21] = test system: Plasmodium berghei; experiment: Antimalarial activity against Plasmodium berghei infected in mouse assessed as increase in mean survival days of host at 5 mg/kg, sc administered 72 hrs after infection relative to control; assay type: functional; settings: route subcutaneous
[22] = test system: Plasmodium berghei; experiment: Antimalarial activity against Plasmodium berghei infected in mouse assessed as increase in mean survival days of host at 2.5 mg/kg, sc administered 72 hrs after infection relative to control; assay type: functional; settings: route subcutaneous
[23] = test system: Plasmodium berghei; experiment: Antimalarial activity against Plasmodium berghei infected in mouse assessed as increase in mean survival days of host at 10 mg/kg, sc administered 72 hrs after infection relative to control; assay type: functional; settings: route subcutaneous
[24] = test system: Plasmodium berghei; experiment: Antimalarial activity against Plasmodium berghei infected in mouse assessed as increase in mean survival days of host at 1.25 mg/kg, sc administered 72 hrs after infection relative to control; assay type: functional; settings: route subcutaneous
[25] = test system: Plasmodium gallinaceum; experiment: Antimalarial activity against trophozoite-induced Plasmodium gallinaceum infected in white leghorn chicken assessed as disease cure from parasite infection at 320 mg/kg, sc administered 72 hrs after infection; assay type: functional, organism-based; set-up: dose 320 mg/kg
[26] = test system: Plasmodium gallinaceum; experiment: Antimalarial activity against trophozoite-induced Plasmodium gallinaceum infected in white leghorn chicken assessed as disease cure from parasite infection at 160 mg/kg, sc administered 72 hrs after infection; assay type: functional, organism-based; set-up: dose 160 mg/kg
[27] = test system: Plasmodium gallinaceum; experiment: Antimalarial activity against trophozoite-induced Plasmodium gallinaceum infected in white leghorn chicken assessed as increase in mean survival days of host at 160 mg/kg, sc administered 72 hrs after infection relative to control; assay type: functional; settings: route subcutaneous
[28] = test system: Plasmodium gallinaceum; experiment: Antimalarial activity against trophozoite-induced Plasmodium gallinaceum infected in white leghorn chicken assessed as increase in mean survival days of host at 320 mg/kg, sc administered 72 hrs after infection relative to control; assay type: functional; settings: route subcutaneous
[29] = test system: Plasmodium gallinaceum; experiment: Antimalarial activity against trophozoite-induced Plasmodium gallinaceum infected in white leghorn chicken assessed as increase in mean survival days of host at 20 mg/kg, sc administered 72 hrs after infection relative to control; assay type: functional; settings: route subcutaneous
[30] = test system: Plasmodium gallinaceum; experiment: Antimalarial activity against trophozoite-induced Plasmodium gallinaceum infected in white leghorn chicken assessed as increase in mean survival days of host at 80 mg/kg, sc administered 72 hrs after infection relative to control; assay type: functional; settings: route subcutaneous
[31] = test system: Plasmodium gallinaceum; experiment: Antimalarial activity against trophozoite-induced Plasmodium gallinaceum infected in white leghorn chicken assessed as increase in mean survival days of host at 40 mg/kg, sc administered 72 hrs after infection relative to control; assay type: functional; settings: route subcutaneous
[32] = test system: Plasmodium gallinaceum; experiment: Antimalarial activity against trophozoite-induced Plasmodium gallinaceum infected in white leghorn chicken assessed as increase in mean survival days of host at 10 mg/kg, sc administered 72 hrs after infection relative to control; assay type: functional; settings: route subcutaneous
[33] = test system: Plasmodium berghei; experiment: Antimalarial activity against trophozoite-induced Plasmodium berghei infected in mouse assessed as daily dose required to suppression of 90% parasite infection administered with diet for 6 days; assay type: functional
[34] = test system: Plasmodium berghei; experiment: Ratio of quinine hydrochloride SD90 to compound SD90 for trophozoite-induced Plasmodium berghei infected in mouse assessed as daily dose required to suppression of 90% parasite infection administered with diet for 6 days; assay type: functional

SMILES: Nc1nc(N)c2c(Cl)c(Sc3cccc(C(F)(F)F)c3)ccc2n1
- MIC [1]: < 0.25 mg/L
- MIC [2]: < 0.25 mg/L
- Activity [3]: Active
- MIC [4]: 2 mg/L (≈ 5.39 µM)
- Activity [5]: Active
- Activity [6]: Active
- Activity [7]: Active
- Activity [8]: Active
- MST [9]: 14.7 days
- MIC [10]: > 25 mg/L
- MST [11]: 5.9 days
- MST [12]: 19.9 days
- MIC [13]: 0.5 mg/L (≈ 1.35 µM)
- MST [14]: 24.9 days
- MIC [15]: < 0.25 mg/L
- Activity [16]: Active
- Activity [17]: Active
- Activity [18]: Active
- MIC [19]: 10 mg/L (≈ 27 µM)

SMILES: Cc1c(Sc2ccc(Cl)c(Cl)c2)ccc2nc(N)nc(N)c12
- Activity [20]: Active
- MST [21]: 7.3 days
- MST [22]: 2.5 days
- MST [23]: 7.9 days
- MST [24]: 1.3 days
- Activity [5]: Active
- Activity [7]: Active
- Activity [8]: Active
- MST [11]: 15.4 days
- Activity [17]: Active
- Activity [18]: Active

SMILES: CN(Cc1ccc(Cl)c(Cl)c1)c1ccc2nc(N)nc(N)c2c1
- Activity [20]: Active
- Activity [5]: Active
- Activity [7]: Active
- Activity [8]: Active
- Activity [25]: Active
- Activity [17]: Active
- Activity [26]: Active
- Activity [18]: Active

SMILES: Nc1nc(N)c2cc(Sc3cc(Cl)cc(Cl)c3)ccc2n1
- MIC [1]: < 0.25 mg/L
- MIC [2]: < 0.25 mg/L
- MST [23]: 1.1 days
- MIC [4]: 20 mg/L (≈ 59.3 µM)
- Activity [5]: Active
- MST [9]: 6.9 days
- MIC [10]: > 25 mg/L
- MST [11]: 4.1 days
- MST [12]: 12.7 days
- MIC [13]: 2 mg/L (≈ 5.93 µM)
- MST [14]: 17.9 days
- MIC [15]: < 0.25 mg/L
- Activity [17]: Active
- Activity [18]: Active
- MIC [19]: 20 mg/L (≈ 59.3 µM)

SMILES: Nc1nc(N)c2cc(Sc3ccc(-c4ccccc4)cc3)ccc2n1
- MST [21]: 1.1 days
- MST [23]: 6.5 days
- Activity [5]: Active
- Activity [8]: Active
- MST [9]: 12.1 days
- MST [11]: 7.9 days
- MST [12]: 15.6 days
- Activity [17]: Active

SMILES: Nc1nc(N)c2cc(NCc3ccc(Cl)c(Cl)c3)ccc2n1
- MST [27]: 15.3 days
- MST [28]: 16.6 days
- MST [29]: 7 days
- MST [30]: 12.9 days
- MST [31]: 12.1 days
- MST [32]: 2.2 days

SMILES: Cc1c(Sc2ccc3ccccc3c2)ccc2nc(N)nc(N)c12
- MIC [1]: < 2.5 mg/L
- Activity [20]: Active
- MIC [2]: < 2.5 mg/L
- MST [21]: 10.9 days
- MST [22]: 6.5 days
- MST [23]: 12.9 days
- MST [24]: 1.9 days
- MIC [4]: < 2.5 mg/L
- Activity [5]: Active
- Activity [7]: Active
- Activity [8]: Active
- MIC [10]: > 25 mg/L
- MST [11]: 20.9 days
- MIC [13]: < 2.5 mg/L
- MIC [15]: < 2.5 mg/L
- Activity [17]: Active
- Activity [18]: Active

SMILES: CN(Cc1ccc(Cl)c(Cl)c1)c1ccc2nc(N)nc(N)c2c1.Cl
- SD90 [33]: 0.16 mg/kg/day
- Ratio [34]: 470

SMILES: COc1cc(Cc2cnc(N)nc2N)cc(OC)c1OC [TRIMETHOPRIM]
- MIC [1]: < 0.25 mg/L
- MIC [2]: < 0.25 mg/L
- MIC [4]: < 0.25 mg/L
- MIC [10]: > 25 mg/L
- SD90 [33]: 120 mg/kg/day
- MIC [13]: < 0.25 mg/L
- MIC [15]: < 0.25 mg/L
- Ratio [34]: 0.6
- MIC [19]: > 25 mg/L

SMILES: Nc1nc(N)c2cc(Sc3c(Cl)c(Cl)c(Cl)c(Cl)c3Cl)ccc2n1
- MIC [1]: 10 mg/L (≈ 22.7 µM)
- MIC [2]: 1.5 mg/L (≈ 3.4 µM)
- MST [21]: 2.7 days
- MST [22]: 2 days
- MST [23]: 6.6 days
- MIC [4]: > 25 mg/L
- Activity [5]: Active
- Activity [7]: Active
- Activity [8]: Active
- MST [9]: 18.1 days
- MIC [10]: > 25 mg/L
- MST [11]: 10.7 days
- MIC [13]: > 25 mg/L
- MIC [15]: 20 mg/L (≈ 45.4 µM)
- Activity [17]: Active

SMILES: CC(=O)Nc1ccc(Sc2ccc3nc(N)nc(N)c3c2)cc1
- MIC [1]: < 0.25 mg/L
- MIC [2]: < 0.25 mg/L
- MST [23]: 3.3 days
- MIC [4]: > 25 mg/L
- Activity [5]: Active
- Activity [8]: Active
- MST [9]: 12.9 days
- MIC [10]: > 25 mg/L
- MST [11]: 6.3 days
- MST [12]: 24.9 days
- MIC [13]: 2.5 mg/L (≈ 7.68 µM)
- MIC [15]: < 0.25 mg/L
- Activity [17]: Active
- Activity [18]: Active
- MIC [19]: > 25 mg/L

SMILES: Nc1nc(N)c2cc(Sc3cc(Cl)ccc3Cl)ccc2n1
- MIC [1]: < 0.25 mg/L
- MIC [2]: < 0.25 mg/L
- MST [21]: 2.3 days
- MST [23]: 2.9 days
- MIC [4]: 10 mg/L (≈ 29.7 µM)
- Activity [5]: Active
- MST [9]: 8.2 days
- MIC [10]: > 25 mg/L
- MST [11]: 5.9 days
- MST [12]: 9.8 days
- SD90 [33]: 4.5 mg/kg/day
- MIC [13]: 1 mg/L (≈ 2.97 µM)
- MST [14]: 8.8 days
- MIC [15]: < 0.25 mg/L
- Ratio [34]: 17
- Activity [17]: Active
- Activity [18]: Active
